Laboratory results published in patent publication US20040253267A1 (priority 2003, published 2004).
Where two headings read alike, the source gives them in different places.

Columns and labels:
[1] = system: breast cancer cell line MA782/5S-B; conditions: 31st day from tumor inoculation, 30 consecutive days treatment; AY/NY 0.3 ml oral once per day, CTX 30 mg/kg/day s.c.
Experimental: (§1) The biological composition comprising 10^8 cells per ml of activated and conditioned yeast cells of the strain Saccharomyces carlsbergensis Hansen strain AS2.441 was prepared by the methods described in Section 5.1 and subsections therein.
(§2) The animals used to generate the breast cancer cells for the experiments were female mice derived from an outbreed line of mouse (obtainable from the Chinese Academy of Military Medical Sciences, Beijing, China), having an average body weight of about 18 to 20 gram. About […] viable tumor cells of the breast cancer cell line MA782/5S-B (obtainable from the Cancer Institute, Chinese Academy of Medical Sciences, Beijing, China) in about 0.2 ml culture suspension were injected subcutaneously into the animals.
The mice injected with tumor cells were immediately divided into 4 experimental groups of ten mice per group and one control group. The four experimental groups were triplicated (i.e., using a total of 120 mice in the experimental groups).
The mice received the biological compositions, untreated yeast cells, CTX or saline on the same day as the tumor cells were transplanted. The mice in group CK2 also started receiving saline on the same day as the other four groups. […] The weight of the mice and the weight of the tumor were determined by standard techniques.

[2] = system: breast cancer cell line MA782/5S-B; conditions: for Number of live animals remaining in the groups after 30 days of treatment: 30 mice per group
Experimental: as §2
The survival time of mice after tumor injection and treatment was studied.
as §1
The animals were prepared in a similar manner as described in Section 8.1.
The mice injected with tumor cells were immediately divided into 4 experimental groups of ten mice per group and one control group. The four experimental groups were triplicated (i.e., using a total of 120 mice in the experimental groups). In group 2AY, the mice received 0.5 ml of the biological composition once per day. In group 2NY, the mice received 0.5 ml of the untreated yeast cells once per day. In group 2CTX, the mice were injected subcutaneously with 45 mg of cyclophosphamide (CTX) per kg body weight per day. In group 2CK1, the mice received 0.5 ml of physiological saline once per day.
The mice received the biological compositions, untreated yeast cells, CTX or saline on the same day as the tumor cells were transplanted. The mice in group 2CK2 also started receiving saline on the same day as the other four groups. The biological compositions, untreated yeast cells and saline were administered orally by a feeding tube and the CTX by subcutaneous injection for 30 consecutive days. The mice were observed over 6 months from the day of tumor inoculation and survival was recorded. The weight of the mice and the weight of the tumor were determined by standard techniques.

[3] = system: breast cancer cell line Ca615-B; assay: Tumor growth in 615 strain mouse model of human breast cancer (Example 6); type: in vivo; conditions: 31st day from tumor inoculation, 30 consecutive days treatment; AY/NY 0.3 ml oral once per day, TSPA 1.5 mg/kg/day i.v.
Experimental: In group TSPA, the mice were injected intravenously with 1.5 mg of thiotepa (TSPA) per kg body weight per day.

[4] = system: breast cancer cell line Ca615-B; assay: Survival time in 615 strain mouse model of human breast cancer (Example 7); type: in vivo; conditions: for Number of live animals remaining in the groups after 30 days of treatment: 30 mice per group
Experimental: In group 2TSPA, the mice were injected intravenously with 2.5 mg of thiotepa (TSPA) per kg body weight per day.

[5] = mice that survived, observed over 6 months, 2AY/2NY 0.5 ml oral once per day, 2TSPA 2.5 mg/kg/day i.v., 30 days
[6] = mice that survived, observed over 6 months, 2AY/2NY 0.5 ml oral once per day, 2CTX 45 mg/kg/day s.c., 30 days

Structure (SMILES): O=P1(N(CCCl)CCCl)NCCCO1 (stereo not drawn) [CTX, cyclophosphamide]
- mean weight of mice and standard deviation [1]: 19.4 ± 2.2 g
- mean weight of tumor nodules and standard deviation [1]: 3.1 ± 1.7 g
- Number of live animals remaining in the groups after 30 days of treatment ([2]; 0 month after cessation of treatment, 2AY/2NY 0.5 ml oral once per day, 2CTX 45 mg/kg/day s.c.): 30
- Number of live animals remaining in the groups after 30 days of treatment ([2]; 1 month after cessation of treatment, 2AY/2NY 0.5 ml oral once per day, 2CTX 45 mg/kg/day s.c.): 30
- Number of live animals remaining in the groups after 30 days of treatment ([2]; 2 months after cessation of treatment, 2AY/2NY 0.5 ml oral once per day, 2CTX 45 mg/kg/day s.c.): 17
- Number of live animals remaining in the groups after 30 days of treatment ([2]; 3 months after cessation of treatment, 2AY/2NY 0.5 ml oral once per day, 2CTX 45 mg/kg/day s.c.): 0
- Number of live animals remaining in the groups after 30 days of treatment ([2]; 4 months after cessation of treatment, 2AY/2NY 0.5 ml oral once per day, 2CTX 45 mg/kg/day s.c.): 0
- Number of live animals remaining in the groups after 30 days of treatment ([2]; 5 months after cessation of treatment, 2AY/2NY 0.5 ml oral once per day, 2CTX 45 mg/kg/day s.c.): 0
- Number of live animals remaining in the groups after 30 days of treatment ([2]; 6 months after cessation of treatment, 2AY/2NY 0.5 ml oral once per day, 2CTX 45 mg/kg/day s.c.): 0
- survival outcome (in words) ([2]; observed over 6 months, 2NY 0.5 ml per day, 2CTX 45 mg/kg/day): all died during the experiment

Structure (SMILES): S=P(N1CC1)(N1CC1)N1CC1 [TSPA, thiotepa]
- mean weight of mice and standard deviation [3]: 20 ± 2.4 g
- mean weight of tumor nodules and standard deviation [3]: 3.1 ± 1.6 mg
- Number of live animals remaining in the groups after 30 days of treatment ([4]; 0 month after cessation of treatment, 2AY/2NY 0.5 ml oral once per day, 2TSPA 2.5 mg/kg/day i.v.): 30
- Number of live animals remaining in the groups after 30 days of treatment ([4]; 1 month after cessation of treatment, 2AY/2NY 0.5 ml oral once per day, 2TSPA 2.5 mg/kg/day i.v.): 30
- Number of live animals remaining in the groups after 30 days of treatment ([4]; 2 months after cessation of treatment, 2AY/2NY 0.5 ml oral once per day, 2TSPA 2.5 mg/kg/day i.v.): 23
- Number of live animals remaining in the groups after 30 days of treatment ([4]; 3 months after cessation of treatment, 2AY/2NY 0.5 ml oral once per day, 2TSPA 2.5 mg/kg/day i.v.): 11
- Number of live animals remaining in the groups after 30 days of treatment ([4]; 4 months after cessation of treatment, 2AY/2NY 0.5 ml oral once per day, 2TSPA 2.5 mg/kg/day i.v.): 4
- Number of live animals remaining in the groups after 30 days of treatment ([4]; 5 months after cessation of treatment, 2AY/2NY 0.5 ml oral once per day, 2TSPA 2.5 mg/kg/day i.v.): 0
- Number of live animals remaining in the groups after 30 days of treatment ([4]; 6 months after cessation of treatment, 2AY/2NY 0.5 ml oral once per day, 2TSPA 2.5 mg/kg/day i.v.): 0
- mean weight of mice and standard deviation [4, 5]: all animals dead
- mean weight of tumor nodules and standard deviation [4, 5]: all animals dead
- survival outcome (in words) ([4]; observed over 6 months, 2AY/2NY 0.5 ml per day, 2TSPA 2.5 mg/kg/day): all died during the experiment
- mean weight of mice and standard deviation [2, 6]: all animals dead
- mean weight of tumor nodules and standard deviation [2, 6]: all animals dead
